Patent publication US6355785B1, “Guanosine-rich oligonucleotide integrase inhibitors” (Aronex Pharmaceuticals, Inc., priority 1993, dated 2002)
Like-named read-outs stand apart in the source and are kept apart here. In the oligonucleotide strings, read from the 5' end, every base follows the letter of its sugar. An asterisk marks phosphorothioate; unmarked linkages are phosphodiester. Other units and linkages are bracketed, terminal groups are in braces. A string of capitals states the bases alone. d = 2'-deoxy (DNA)

Tests used:
[1] = target: T1, FMLV reverse transcriptase (Friend murine leukemia virus, UniProt P26810); assay: Reverse transcriptase assay (ELOSA); format: biochemical; details: read-out: inhibitory concentration for 50% reduction in RT activity
T1 construct: Culture media containing FMLV reverse transcriptase (RT) was mixed with various concentrations; endogenous in cells; host or cells: culture medium of FMLV-infected murine fibroblasts (pLRB215)

HIV-1 RT = HIV-1 RT (Human immunodeficiency virus type 1 group M subtype B, UniProt P04585); assay: In vitro inhibition of HIV-1 RT (kinetic analysis); format: biochemical
[2] = target: HIV-1 gp120 interaction with CD4 (Human immunodeficiency virus type 1 group M subtype B, UniProt P04578)
HIV-1 strain DV = assay: HIV-1 induced syncytia formation assay in SUP T1 cells; format: cell-based; details: SUP T1, HIV-1DV, four days; read-out: IC50 Syn (syncytium inhibition)
HIV-1DV = assay: HIV-1 p24 production in SUP T1 cells; format: cell-based; details: SUP T1, HIV-1DV, four days
SUP T1 cells [3] = test system: SUP T1 cells
SUP T1 cells [4] = assay: Cytotoxicity assay, CellTiter 96 (MTS), SUP T1 cells; details: read-out: TC50 (concentration reducing cell proliferation by 50%); SUP T1, dye (MTS) metabolism assay
T7 polymerase = T7 polymerase (Escherichia phage T7, UniProt P00573); assay: Bacterial T7 in-vitro transcription assay; format: biochemical
T7 polymerase, sequence (P00573 whole entry, the tested form may be a part): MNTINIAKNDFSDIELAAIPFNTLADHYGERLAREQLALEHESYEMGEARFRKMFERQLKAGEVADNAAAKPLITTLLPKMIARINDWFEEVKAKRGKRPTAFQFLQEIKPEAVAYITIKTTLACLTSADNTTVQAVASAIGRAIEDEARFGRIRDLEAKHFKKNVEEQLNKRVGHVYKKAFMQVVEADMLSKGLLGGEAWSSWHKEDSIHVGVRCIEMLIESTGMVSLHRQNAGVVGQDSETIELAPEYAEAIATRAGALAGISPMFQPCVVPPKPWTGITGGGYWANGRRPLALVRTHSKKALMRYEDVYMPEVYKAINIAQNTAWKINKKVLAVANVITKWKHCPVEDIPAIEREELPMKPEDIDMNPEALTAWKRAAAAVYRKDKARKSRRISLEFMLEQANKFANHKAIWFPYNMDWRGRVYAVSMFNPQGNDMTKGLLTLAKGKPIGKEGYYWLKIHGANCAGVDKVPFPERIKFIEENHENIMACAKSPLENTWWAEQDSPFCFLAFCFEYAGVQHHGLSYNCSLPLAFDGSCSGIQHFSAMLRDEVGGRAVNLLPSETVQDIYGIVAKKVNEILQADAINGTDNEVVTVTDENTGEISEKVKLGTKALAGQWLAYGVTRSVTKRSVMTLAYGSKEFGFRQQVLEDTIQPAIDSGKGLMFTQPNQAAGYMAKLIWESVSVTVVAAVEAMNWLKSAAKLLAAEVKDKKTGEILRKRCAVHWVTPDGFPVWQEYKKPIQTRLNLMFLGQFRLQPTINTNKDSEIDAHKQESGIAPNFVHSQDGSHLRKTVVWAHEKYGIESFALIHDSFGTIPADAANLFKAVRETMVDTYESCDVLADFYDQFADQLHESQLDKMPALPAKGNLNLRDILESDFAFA
Method: In this assay system, a 2 kb fragment (HindIII to EcoR1) of the FMLV virus (clone 57) was molecularly cloned between the HindIII/EcoR1 sites 10 bp downstream of the bacterial T7 promoter (p275A) or 50 bp downstream of the bacterial T3 promoter (pBSFMLV2). A schematic representation of these two recombinant plasmids can be seen in FIG. 1. Isolated recombinant DNA was then digested with DdeI. Oligonucleotides were then incubated with the digested DNA and the mixture was subjected to in-vitro transcription using either the T7 or T3 bacterial enzymes.

HSV-1 IE175 promoter = assay: Eukaryotic in vitro transcription (HeLa cell nuclear extract)
HSV-2 strain HG52 = assay: HSV-2 viral yield reduction assay in Vero cells

## 5′-gttgggggttgttggtggggtggtgg-3′ [I100-12] (GTTGGGGGTTGTTGGTGGGGTGGTGG; phosphorothioate backbone, further chemistry not given here)
[1]
  IC50: < 500 nM
HIV-1 RT
  Ki: 5 nM
HIV-1 RT; read-out: ID50 (the source's name)
  IC50: 15 nM
[2]; read-out: ID50 [CD4], oligo binding to immobilized CD4
  IC50: 475 nM
[2]; read-out: ID50 [gp 120], oligo preincubated with soluble gp120
  IC50: 80 nM
HIV-1 strain DV
  IC50: 225 nM
HIV-1DV
  IC50: < 200 nM
SUP T1 cells [3]
  CC50: 18000 nM

## 5′-gatccatgtcagtgacactgcgtagatccgatgatccagtcgatg-3′ [I100-11]
SUP T1 cells [4]
  CC50: 46500 nM
T7 polymerase
  T7 directed transcription: increased the level of specific transcripts
HSV-1 IE175 promoter
  eukaryotic transcription from HSV-1 IE175 promoter: capable of inhibiting eukaryotic transcription

## B106-97: fully phosphorothioated version of B106-71 (dG*dT*dG*dG*dT*dT*dG*dG*dT*dG*dG*dT*dG*dG*dT*dG*dT*dG*dT*dG*dG*dG*dT*dT*dT*dG*dG*dG*dG*dT*dG*dG*dG*dG*dG*dG; 3' end capped with propanolamine or cholesterol, which one not given here)
HSV-2 strain HG52
  concentration reducing virus by 50%: same levels as B106-96
